# Data as given in PMC8956739, “A synthetic lipopeptide targeting top-priority multidrug-resistant Gram-negative pathogens” (Nature Communications, 2022).
# Values joined by “and” are separate entries in the source; they are usually repeats but may differ in a detail not shown here. Identical values can stand only once. Residues, ends and D or L forms follow the SMILES beside them.
# What was measured:
# Swiss mice = assay: Acute toxicity in mice (maximum tolerated dose, IV bolus); assay type: in vivo, mouse; conditions: replicates 1-4
# Method in brief: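 Female Swiss mice (7 weeks, 22–28 g) given single IV tail-vein bolus of lipopeptide in 0.9% saline, dosed as mg/kg free base. Clinical toxicity signs monitored over 0–24 h, most frequently in first 2 h.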
# P. aeruginosa ATCC 27853 = assay: Neutropenic mouse bloodstream infection model; assay type: in vivo; conditions: single IV dose 4 mg/kg
# Method in brief: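 Female Swiss mice made neutropenic with cyclophosphamide (150 mg/kg day −4, 100 mg/kg day −1), infected IV with 50 µL of 4 × 10^8 CFU/mL. Lipopeptide 4 mg/kg (free base) IV at 2 h post-inoculation, n = 3. Efficacy = Δlog10 CFU/mL blood versus saline at 4 h post-dose.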
# A. baumannii AB5075 = assay: Transcriptomic analysis (RNA-Seq) of bacteria; assay type: cell-based, Acinetobacter baumannii; conditions: for logFC (Differential gene expression for all genes), Geneid ABUW_RS00005 / logFC (Differential gene expression for all genes), Geneid ABUW_RS00020 / logFC (Fold change), gene ABUW_RS00010 / logFC (Fold change), gene ABUW_RS00030 / logFC (Fold change), gene ABUW_RS00035 / logFC (Fold change), gene recF (ABUW_RS00015) / 4h_1h logFC (Differential gene expression for all genes), Geneid ABUW_RS00005 / 4h_1h logFC (Differential gene expression for all genes), Geneid ABUW_RS00010 / 4h_1h logFC (Differential gene expression for all genes), Geneid ABUW_RS00015 / 4h_1h logFC (Differential gene expression for all genes), Geneid ABUW_RS00020: RNA-Seq A. baumannii AB5075; for log2FC, gene ABUW_RS01945 (acyl-CoA thioesterase II) / log2FC, gene ABUW_RS02545 (acyl-CoA thioesterase) / log2FC, gene ABUW_RS05045 (acyl-CoA thioesterase) / log2FC, gene ABUW_RS17575 (acyl-CoA thioesterase): pathway Fatty Acid and Lipid Degradation; for 4h_1h logFC (Differential gene expression for all genes), Geneid ABUW_RS00005 / 4h_1h logFC (Differential gene expression for all genes), Geneid ABUW_RS00010 / 4h_1h logFC (Differential gene expression for all genes), Geneid ABUW_RS00015 / 4h_1h logFC (Differential gene expression for all genes), Geneid ABUW_RS00020: 4h vs 1h
# Experimental: Mid-log phase A. baumannii AB5075 (~10^8 CFU/mL) in CaMHB was treated with colistin (2 and 8 μg/mL), F287, F319 or F365 (equimolar concentration to colistin) for 1 and 4 h. Total RNA was extracted using TRIzol Reagent (Invitrogen, USA) and RNeasy Mini Kit (Qiagen, Germany). Quality check of RNA samples was conducted with NanoDrop (Thermo Fisher Scientific, USA) and Agilent 2100 Bioanalyzer (Agilent Technologies, USA) for sequencing (150 bp paired-end) at Genewiz (Shanghai, China). Raw reads were aligned to A. baumannii AB5075 genome (GCF_000963815, https://www.ncbi.nlm.nih.gov/assembly/GCF_000963815.1/) using subread-aligner (subread 2.0.1) and summarized by featureCounts (subread 2.0.1). Principal component analysis (PCA) was conducted with mixOmics 6.14.1 in R. Differentially expressed genes were determined using limma 3.46.0 with a combination of fold change ≥ 2 and false discovery rate (FDR, by Benjamini–Hochberg algorithm) adjusted P-value ≤ 0.05 (n = 3). Enrichment analysis of gene differential expression in AB5075 was conducted using BioCyc (A. baumannii AB5075, version 25.5). UpSetR 1.4.0, ComplexHeatmap 2.6.2 and circlize 0.4.13 were used for data visualization. Raw data were deposited in Short Reads Archive (SRA) database under accession numbers SRR15235669-SRR15235725.
# [1] = tested on: MDR clinical isolates of Enterobacterales (n = 177, 152 carbapenem-resistant); assay: Extended MIC screening, MDR clinical isolates; assay type: cell-based
# Experimental: MICs were determined in cation-adjusted Mueller–Hinton broth (CaMHB) by the broth micro-dilution method against ATCC strains and clinical isolates. MICs in the presence of Survanta® were determined as described above against P. aeruginosa ATCC 27853. In the 100 μL of fresh CaMHB containing polymyxins, 10% Survanta® (v/v, 2.5 mg/mL phospholipids) was added. MICs in the presence and absence of Survanta® were compared to determine the effect of binding to lung surfactant on the antibacterial activity of polymyxins.
compound,measurement,setting,value
"CC[C@@H]1NC(=O)[C@@H](CC(C)C)NC(=O)[C@H](CCN)NC(=O)[C@@H](NC(=O)[C@H](CN)NC(=O)[C@@H](NC(=O)[C@H](CCN)NC(=O)c2ccc(Cl)cc2Cl)[C@@H](C)O)CCNC(=O)[C@H]([C@@H](C)O)NC(=O)[C@H](CCN)NC(=O)[C@H](CCN)NC1=O [Lipopeptide F365] (HELM PEPTIDE1{[O=C(c1ccc(Cl)cc1Cl)[*:2]].[Dab].T.[NC[C@H](N[*:1])C(=O)[*:2]].[Dab].[Dab].[dL].[Abu].[Dab].[Dab].T}$PEPTIDE1,PEPTIDE1,5:R3-11:R2$$$V2.0)","MTD, single replicate",Swiss mice,10.1 mg/kg
same,"Log10 CFU/mL blood at 4 h, Mean",P. aeruginosa ATCC 27853; 4 h,4.36 Log10 CFU/mL blood
same,Δlog10 CFU/mL blood (mean),"P. aeruginosa ATCC 27853; 4 h, treated minus control, mean of replicates, 4 mg/kg",−3.44 log10 CFU/mL blood
same,"Log10 CFU/mL blood at 4 h, single mouse","P. aeruginosa ATCC 27853; 4 h, 4 mg/kg",5.03 Log10 CFU/mL blood and 4.95 Log10 CFU/mL blood and 3.10 Log10 CFU/mL blood
same,"Delta Log10 CFU/mL blood at 4 h, single mouse","P. aeruginosa ATCC 27853; treated mouse minus mean of vehicle mice, 4 mg/kg",-2.77 Log10 CFU/mL blood and -2.85 Log10 CFU/mL blood and -4.70 Log10 CFU/mL blood
same,"logFC (Differential gene expression for all genes), Geneid ABUW_RS00005","A. baumannii AB5075; H vs Cont, 1h",0.01563
same,"logFC (Differential gene expression for all genes), Geneid ABUW_RS00020","A. baumannii AB5075; H vs Cont, 1h",0.4229
same,"logFC (Fold change), gene ABUW_RS00010","A. baumannii AB5075; H vs Cont, 1h",0.4611
same,"logFC (Fold change), gene ABUW_RS00030","A. baumannii AB5075; H vs Cont, 1h",-0.6384
same,"logFC (Fold change), gene ABUW_RS00035","A. baumannii AB5075; H vs Cont, 1h",1.28
same,"logFC (Fold change), gene recF (ABUW_RS00015)","A. baumannii AB5075; H vs Cont, 1h",-0.2583
same,"log2FC, gene ABUW_RS01945 (acyl-CoA thioesterase II)","A. baumannii AB5075; H vs Cont, 1h",0.05276
same,"log2FC, gene ABUW_RS02545 (acyl-CoA thioesterase)","A. baumannii AB5075; H vs Cont, 1h",1.462
same,"log2FC, gene ABUW_RS05045 (acyl-CoA thioesterase)","A. baumannii AB5075; H vs Cont, 1h",0.342
same,"log2FC, gene ABUW_RS17575 (acyl-CoA thioesterase)","A. baumannii AB5075; H vs Cont, 1h",-0.4502
same,"logFC (Differential gene expression for all genes), Geneid ABUW_RS00005","A. baumannii AB5075; H vs Cont, 4h",-0.1188
same,"logFC (Differential gene expression for all genes), Geneid ABUW_RS00020","A. baumannii AB5075; H vs Cont, 4h",0.1404
same,"logFC (Fold change), gene ABUW_RS00010","A. baumannii AB5075; H vs Cont, 4h",1.271
same,"logFC (Fold change), gene ABUW_RS00030","A. baumannii AB5075; H vs Cont, 4h",-1.908
same,"logFC (Fold change), gene ABUW_RS00035","A. baumannii AB5075; H vs Cont, 4h",1.362
same,"logFC (Fold change), gene recF (ABUW_RS00015)","A. baumannii AB5075; H vs Cont, 4h",-0.8325
same,"log2FC, gene ABUW_RS01945 (acyl-CoA thioesterase II)","A. baumannii AB5075; H vs Cont, 4h",-0.9573
same,"log2FC, gene ABUW_RS02545 (acyl-CoA thioesterase)","A. baumannii AB5075; H vs Cont, 4h",1.303
same,"log2FC, gene ABUW_RS05045 (acyl-CoA thioesterase)","A. baumannii AB5075; H vs Cont, 4h",0.7194
same,"log2FC, gene ABUW_RS17575 (acyl-CoA thioesterase)","A. baumannii AB5075; H vs Cont, 4h",-2.7329
same,"4h_1h logFC (Differential gene expression for all genes), Geneid ABUW_RS00005",A. baumannii AB5075; H,-0.4851
same,"4h_1h logFC (Differential gene expression for all genes), Geneid ABUW_RS00010",A. baumannii AB5075; H,0.8595
same,"4h_1h logFC (Differential gene expression for all genes), Geneid ABUW_RS00015",A. baumannii AB5075; H,-1.098
same,"4h_1h logFC (Differential gene expression for all genes), Geneid ABUW_RS00020",A. baumannii AB5075; H,0.6821
same,"logFC (Differential gene expression for all genes), Geneid ABUW_RS00005","A. baumannii AB5075; L vs Cont, 1h",0.07464
same,"logFC (Differential gene expression for all genes), Geneid ABUW_RS00020","A. baumannii AB5075; L vs Cont, 1h",-0.04639
same,"logFC (Fold change), gene ABUW_RS00010","A. baumannii AB5075; L vs Cont, 1h",0.04206
same,"logFC (Fold change), gene ABUW_RS00030","A. baumannii AB5075; L vs Cont, 1h",0.5072
same,"logFC (Fold change), gene ABUW_RS00035","A. baumannii AB5075; L vs Cont, 1h",-0.01907
same,"logFC (Fold change), gene recF (ABUW_RS00015)","A. baumannii AB5075; L vs Cont, 1h",0.05956
same,"log2FC, gene ABUW_RS01945 (acyl-CoA thioesterase II)","A. baumannii AB5075; L vs Cont, 1h",0.4901
same,"log2FC, gene ABUW_RS02545 (acyl-CoA thioesterase)","A. baumannii AB5075; L vs Cont, 1h",-0.0862
same,"log2FC, gene ABUW_RS05045 (acyl-CoA thioesterase)","A. baumannii AB5075; L vs Cont, 1h",-0.2681
same,"log2FC, gene ABUW_RS17575 (acyl-CoA thioesterase)","A. baumannii AB5075; L vs Cont, 1h",-0.08172
same,"logFC (Differential gene expression for all genes), Geneid ABUW_RS00005","A. baumannii AB5075; L vs Cont, 4h",0.1571
same,"logFC (Differential gene expression for all genes), Geneid ABUW_RS00020","A. baumannii AB5075; L vs Cont, 4h",-0.1135
same,"logFC (Fold change), gene ABUW_RS00010","A. baumannii AB5075; L vs Cont, 4h",0.2996
same,"logFC (Fold change), gene ABUW_RS00030","A. baumannii AB5075; L vs Cont, 4h",0.4017
same,"logFC (Fold change), gene ABUW_RS00035","A. baumannii AB5075; L vs Cont, 4h",0.1258
same,"logFC (Fold change), gene recF (ABUW_RS00015)","A. baumannii AB5075; L vs Cont, 4h",-0.3068
same,"log2FC, gene ABUW_RS01945 (acyl-CoA thioesterase II)","A. baumannii AB5075; L vs Cont, 4h",-0.2225
same,"log2FC, gene ABUW_RS02545 (acyl-CoA thioesterase)","A. baumannii AB5075; L vs Cont, 4h",-0.9002
same,"log2FC, gene ABUW_RS05045 (acyl-CoA thioesterase)","A. baumannii AB5075; L vs Cont, 4h",0.02763
same,"log2FC, gene ABUW_RS17575 (acyl-CoA thioesterase)","A. baumannii AB5075; L vs Cont, 4h",-0.0188
same,"4h_1h logFC (Differential gene expression for all genes), Geneid ABUW_RS00005",A. baumannii AB5075; L,-0.03686
same,"4h_1h logFC (Differential gene expression for all genes), Geneid ABUW_RS00010",A. baumannii AB5075; L,-0.6141
same,"4h_1h logFC (Differential gene expression for all genes), Geneid ABUW_RS00015",A. baumannii AB5075; L,-0.239
same,"4h_1h logFC (Differential gene expression for all genes), Geneid ABUW_RS00020",A. baumannii AB5075; L,-0.06215
same,Number of isolates,[1]; isolates with MIC 0.05 µg/mL,0
same,Number of isolates,[1]; isolates with MIC 0.125 µg/mL,9
same,Number of isolates,[1]; isolates with MIC 0.25 µg/mL,68
same,Number of isolates,[1]; isolates with MIC 0.5 µg/mL,72
same,Number of isolates,[1]; isolates with MIC 1 µg/mL,5
same,Number of isolates,[1]; isolates with MIC 2 µg/mL,1
same,Number of isolates,[1]; isolates with MIC 4 µg/mL,2
same,Number of isolates,[1]; isolates with MIC 8 µg/mL,0
same,Number of isolates,[1]; isolates with MIC 16 µg/mL,5
same,Number of isolates,[1]; isolates with MIC 32 µg/mL,2
same,Number of isolates,[1]; isolates with MIC 64 µg/mL,4
same,Number of isolates,[1]; isolates with MIC >64 µg/mL,6
